Test system: MV-4-11 cells
Test: Gene expression microarray analysis (Affymetrix PrimeView) and GSEA
Format: cell-based, human
Parameters: RFU PODN (11730768_x_at) / Fold change /veh PODN (11730768_x_at) / RFU LINC00158 (11744669_a_at) / Fold change /veh LINC00158 (11744669_a_at) / RFU DUSP10 (11751237_a_at) / Fold change /veh DUSP10 (11751237_a_at) / RFU ID3 (11757404_x_at) / Fold change /veh ID3 (11757404_x_at) / RFU PLEKHG5 (11737974_s_at) / Fold change /veh PLEKHG5 (11737974_s_at) / RFU LRRC4B (11730491_at) / Fold change /veh LRRC4B (11730491_at) / RFU GIMAP4 (11747438_a_at) / Fold change /veh GIMAP4 (11747438_a_at) / RFU KRT8 (11758183_x_at) / Fold change /veh KRT8 (11758183_x_at) / RFU CNN1 (11734310_a_at) / Fold change /veh CNN1 (11734310_a_at) / RFU VPS37D (11726825_at) / Fold change /veh VPS37D (11726825_at) / RFU C10orf10 (11716522_x_at) / Fold change /veh C10orf10 (11716522_x_at) / RFU KIR2DL2 /// KIR2DL4 /// KIR2DL5A /// KIR2DL5B /// KIR2DS1 /// KIR2DS2 /// KIR2DS3 /// KIR2DS4 /// KIR3DL3 /// KIR3DL3 /// KIR3DS1 (11738374_at) / Fold change /veh KIR2DL2 /// KIR2DL4 /// KIR2DL5A /// KIR2DL5B /// KIR2DS1 /// KIR2DS2 /// KIR2DS3 /// KIR2DS4 /// KIR3DL3 /// KIR3DL3 /// KIR3DS1 (11738374_at) / RFU C1QL1 (11718748_at) / Fold change /veh C1QL1 (11718748_at) / RFU TMPRSS4 (11747572_a_at) / Fold change /veh TMPRSS4 (11747572_a_at) / RFU HAMP (11756126_x_at) / Fold change /veh HAMP (11756126_x_at) / RFU RNFT2 (11725882_a_at) / Fold change /veh RNFT2 (11725882_a_at) / RFU NR4A2 (11747474_a_at) / Fold change /veh NR4A2 (11747474_a_at) / RFU ABCC12 (11746883_a_at) / Fold change /veh ABCC12 (11746883_a_at) / RFU TMEM136 (11760407_x_at) / Fold change /veh TMEM136 (11760407_x_at) / RFU CLDN22 /// WWC2 (11732394_at) / Fold change /veh CLDN22 /// WWC2 (11732394_at) / RFU HLA-DPB1 (11760878_x_at) / Fold change /veh HLA-DPB1 (11760878_x_at) / RFU SPINT1 (11716480_a_at) / Fold change /veh SPINT1 (11716480_a_at) / RFU GAP43 (11754022_s_at) / Fold change /veh GAP43 (11754022_s_at) / RFU A4GNT (11735810_at) / Fold change /veh A4GNT (11735810_at) / RFU PRB3 (11715151_x_at) / Fold change /veh PRB3 (11715151_x_at) / RFU TUBB4B (11761932_at) / Fold change /veh TUBB4B (11761932_at) / RFU CAPN14 (11732068_a_at) / Fold change /veh CAPN14 (11732068_a_at) / RFU TMCC2 (11721928_a_at) / Fold change /veh TMCC2 (11721928_a_at) / RFU IRGQ (11745062_a_at) / Fold change /veh IRGQ (11745062_a_at) / RFU FAM174B (11720279_a_at) / Fold change /veh FAM174B (11720279_a_at) / RFU TMPRSS4 (11748680_a_at) / Fold change /veh TMPRSS4 (11748680_a_at) / RFU FAM212B (11763350_a_at) / Fold change /veh FAM212B (11763350_a_at) / RFU PLEKHG5 (11743358_a_at) / Fold change /veh PLEKHG5 (11743358_a_at) / RFU ZSCAN30 (11745921_a_at) / Fold change /veh ZSCAN30 (11745921_a_at) / RFU CMKLR1 (11741424_a_at) / Fold change /veh CMKLR1 (11741424_a_at) / RFU LOC101060620 /// MAPK8IP1 (11723275_at) / Fold change /veh LOC101060620 /// MAPK8IP1 (11723275_at) / RFU SPTSSB (11747773_x_at) / Fold change /veh SPTSSB (11747773_x_at) / RFU PRSS12 (11739890_at) / Fold change /veh PRSS12 (11739890_at) / RFU BIN1 (11741810_x_at) / Fold change /veh BIN1 (11741810_x_at) / RFU WNT11 (11732464_a_at) / Fold change /veh WNT11 (11732464_a_at) / RFU C10orf10 (11716521_a_at) / Fold change /veh C10orf10 (11716521_a_at) / RFU C5orf56 (11738089_at) / Fold change /veh C5orf56 (11738089_at) / RFU CYB561 (11721691_x_at) / Fold change /veh CYB561 (11721691_x_at) / RFU ANKRD19P (11752326_a_at) / Fold change /veh ANKRD19P (11752326_a_at) / RFU OR2T12 /// OR2T33 /// OR2T8 (11738714_s_at) / Fold change /veh OR2T12 /// OR2T33 /// OR2T8 (11738714_s_at) / RFU VCAN (11748164_a_at) / Fold change /veh VCAN (11748164_a_at) / RFU JSRP1 (11732532_at) / Fold change /veh JSRP1 (11732532_at) / RFU KRTAP10-11 (11738290_x_at) / Fold change /veh KRTAP10-11 (11738290_x_at) / RFU MYO3A (11730013_a_at) / Fold change /veh MYO3A (11730013_a_at) / RFU EBF3 (11725865_a_at) / Fold change /veh EBF3 (11725865_a_at) / RFU CAMK2N1 (11719241_x_at) / Fold change /veh CAMK2N1 (11719241_x_at) / RFU C5orf56 (11738088_a_at) / Fold change /veh C5orf56 (11738088_a_at) / RFU OLFML3 (11715873_a_at) / Fold change /veh OLFML3 (11715873_a_at) / RFU LOC100653217 /// NTM (11731650_a_at) / Fold change /veh LOC100653217 /// NTM (11731650_a_at) / RFU MAPK11 (11762145_a_at) / Fold change /veh MAPK11 (11762145_a_at) / RFU FIZ1 (11724087_x_at) / Fold change /veh FIZ1 (11724087_x_at) / RFU OASL (11726364_x_at) / Fold change /veh OASL (11726364_x_at) / RFU SOX15 (11748057_x_at) / Fold change /veh SOX15 (11748057_x_at) / RFU CD79A (11719716_a_at) / Fold change /veh CD79A (11719716_a_at) / RFU HIST1H1D (11736915_at) / Fold change /veh HIST1H1D (11736915_at) / RFU CASKIN2 (11723855_a_at) / Fold change /veh CASKIN2 (11723855_a_at) / RFU LOC730098 (11760151_x_at) / Fold change /veh LOC730098 (11760151_x_at) / RFU OR4N2 (11742367_at) / Fold change /veh OR4N2 (11742367_at) / RFU PRRT2 (11749266_a_at) / Fold change /veh PRRT2 (11749266_a_at) / RFU SNX32 (11753110_a_at) / Fold change /veh SNX32 (11753110_a_at) / RFU CDHR5 (11726645_a_at) / Fold change /veh CDHR5 (11726645_a_at) / RFU RCAN1 (11760418_a_at) / Fold change /veh RCAN1 (11760418_a_at) / RFU FAM167A (11723789_a_at) / Fold change /veh FAM167A (11723789_a_at) / RFU FAM26E (11764081_at) / Fold change /veh FAM26E (11764081_at) / RFU ISYNA1 (11749810_s_at) / Fold change /veh ISYNA1 (11749810_s_at) / RFU ACY1 (11761880_at) / Fold change /veh ACY1 (11761880_at) / RFU 11764098_at / Fold change /veh 11764098_at / RFU SAMD14 (11745864_x_at) / Fold change /veh SAMD14 (11745864_x_at) / RFU NPB (11741838_a_at) / Fold change /veh NPB (11741838_a_at) / RFU TMPRSS6 (11731388_a_at) / Fold change /veh TMPRSS6 (11731388_a_at) / RFU KRTAP10-2 (11738614_at) / Fold change /veh KRTAP10-2 (11738614_at) / RFU ARHGAP8 /// PRR5-ARHGAP8 (11727945_x_at) / Fold change /veh ARHGAP8 /// PRR5-ARHGAP8 (11727945_x_at) / RFU KRTAP5-7 /// NADSYN1 (11734609_at) / Fold change /veh KRTAP5-7 /// NADSYN1 (11734609_at) / RFU RASL12 (11751679_a_at) / Fold change /veh RASL12 (11751679_a_at) / RFU CDKN2B (11736163_a_at) / Fold change /veh CDKN2B (11736163_a_at) / RFU PRF1 (11729649_at) / Fold change /veh PRF1 (11729649_at) / RFU, ZNF638 /// ZNF638-IT1 / Fold change vs veh, ZNF638 /// ZNF638-IT1 / RFU, PANK3 / Fold change vs veh, PANK3 / RFU, SH3YL1 / Fold change vs veh, SH3YL1 / RFU, ZEB2 / Fold change vs veh, ZEB2 / RFU, NRIP1 / Fold change vs veh, NRIP1 / RFU, PTTG1IP / Fold change vs veh, PTTG1IP / RFU, CAPN2 / Fold change vs veh, CAPN2 / RFU, MED14 / Fold change vs veh, MED14 / RFU, SNORA58 / Fold change vs veh, SNORA58 / RFU, C1orf63 / Fold change vs veh, C1orf63 / RFU, LRRFIP1 / Fold change vs veh, LRRFIP1 / RFU, NDUFAF7 / Fold change vs veh, NDUFAF7 / RFU, SLC12A2 / Fold change vs veh, SLC12A2 / RFU, IBTK / Fold change vs veh, IBTK / RFU, ESF1 / Fold change vs veh, ESF1 / Fold change vs veh, TMEM50B / RFU, TAOK1 / Fold change vs veh, TAOK1 / RFU, ACBD3 / Fold change vs veh, ACBD3 / RFU, TMA16 / Fold change vs veh, TMA16 / RFU, RWDD3 / Fold change vs veh, RWDD3 / RFU, BCAT1 / Fold change vs veh, BCAT1 / RFU, EDEM3 / Fold change vs veh, EDEM3 / RFU, TMEM33 / Fold change vs veh, TMEM33 / RFU, WDR75 / Fold change vs veh, WDR75 / RFU, AHCTF1 / Fold change vs veh, AHCTF1 / RFU, TFRC / Fold change vs veh, TFRC / RFU, ZDHHC17 / Fold change vs veh, ZDHHC17 / RFU, NOM1 / Fold change vs veh, NOM1 / RFU, ARL8B / Fold change vs veh, ARL8B / RFU, ZBTB11 / Fold change vs veh, ZBTB11 / RFU, TAMM41 / Fold change vs veh, TAMM41 / RFU, KIAA1704 /// LOC100996395 / Fold change vs veh, KIAA1704 /// LOC100996395 / RFU, ING1 / Fold change vs veh, ING1 / RFU, TRMT61B / Fold change vs veh, TRMT61B / RFU, FUBP3 / Fold change vs veh, FUBP3 / RFU, TP53 / Fold change vs veh, TP53 / RFU, TNKS2 / Fold change vs veh, TNKS2 / RFU, ZFP14 / Fold change vs veh, ZFP14 / RFU, ACTR2 / Fold change vs veh, ACTR2 / RFU, PPP3R1 / Fold change vs veh, PPP3R1 / RFU, PIK3R1 / Fold change vs veh, PIK3R1 / RFU, HNRNPA1 / Fold change vs veh, HNRNPA1 / RFU, RNF170 / Fold change vs veh, RNF170 / RFU, ZNF28 / Fold change vs veh, ZNF28 / RFU, RNGTT / Fold change vs veh, RNGTT / RFU, OGT / Fold change vs veh, OGT / RFU, BRD1 / Fold change vs veh, BRD1 / RFU, MARS / Fold change vs veh, MARS / RFU, ZNF655 / Fold change vs veh, ZNF655 / RFU, FAHD1 / Fold change vs veh, FAHD1 / RFU, BDP1 / Fold change vs veh, BDP1 / RFU, LRRCC1 / Fold change vs veh, LRRCC1 / RFU, ARID1A / Fold change vs veh, ARID1A / RFU, ZNF146 / Fold change vs veh, ZNF146 / RFU, ZNF330 / Fold change vs veh, ZNF330 / RFU, GPN3 / Fold change vs veh, GPN3 / RFU, C9orf123 / Fold change vs veh, C9orf123 / RFU, N4BP2L2 / Fold change vs veh, N4BP2L2 / RFU, ARFIP1 / Fold change vs veh, ARFIP1 / RFU, FAM179B / Fold change vs veh, FAM179B / RFU, BCL10 / Fold change vs veh, BCL10 / RFU, UHRF1BP1L / Fold change vs veh, UHRF1BP1L / RFU, BET1 / Fold change vs veh, BET1 / RFU, CNOT2 / Fold change vs veh, CNOT2 / RFU, ZNF268 / Fold change vs veh, ZNF268 / Fold change vs veh, ZNF507 / RFU, DGCR2 / Fold change vs veh, DGCR2 / RFU, WDSUB1 / Fold change vs veh, WDSUB1 / Fold change vs veh, HSP90B1 /// MIR3652 / RFU, ADSS / Fold change vs veh, ADSS / RFU, GK / Fold change vs veh, GK / RFU, ZNF148 / Fold change vs veh, ZNF148 / RFU, TAF9 / Fold change vs veh, TAF9 / RFU, SLC1A5 / Fold change vs veh, SLC1A5 / RFU, SLMO2 / Fold change vs veh, SLMO2 / RFU, ABCC4 / Fold change vs veh, ABCC4 / RFU, LOC101060439 /// RAP1B / Fold change vs veh, LOC101060439 /// RAP1B / RFU, RFX7 / Fold change vs veh, RFX7 / RFU, GTPBP10 / Fold change vs veh, GTPBP10 / RFU, CNEP1R1 / Fold change vs veh, CNEP1R1 / RFU, BIVM-ERCC5 /// ERCC5 / Fold change vs veh, BIVM-ERCC5 /// ERCC5 / RFU, ILF3 / Fold change vs veh, ILF3 / RFU 11762660_at / Fold change /veh 11762660_at / RFU VCAN (11757783_s_at) / Fold change /veh VCAN (11757783_s_at) / RFU DDX43 (11728927_at) / Fold change /veh DDX43 (11728927_at) / RFU KRT8 (11758188_x_at) / Fold change /veh KRT8 (11758188_x_at) / RFU NKD1 (11759106_at) / Fold change /veh NKD1 (11759106_at) / RFU SRD5A1 (11742802_a_at) / Fold change /veh SRD5A1 (11742802_a_at) / RFU TPSAB1 /// TPSB2 (11721975_s_at) / Fold change /veh TPSAB1 /// TPSB2 (11721975_s_at) / RFU GSTM3 (11746129_a_at) / Fold change /veh GSTM3 (11746129_a_at) / RFU IL23R (11737362_x_at) / Fold change /veh IL23R (11737362_x_at) / RFU TMEM51 (11727254_a_at) / Fold change /veh TMEM51 (11727254_a_at) / RFU PIWIL2 (11732686_x_at) / Fold change /veh PIWIL2 (11732686_x_at) / RFU ORM1 (11744905_x_at) / Fold change /veh ORM1 (11744905_x_at) / RFU CCDC152 (11743942_at) / Fold change /veh CCDC152 (11743942_at) / RFU ECM1 (11717891_a_at) / Fold change /veh ECM1 (11717891_a_at) / RFU IL23R (11748794_a_at) / Fold change /veh IL23R (11748794_a_at) / RFU TNFAIP8L3 (11732012_x_at) / Fold change /veh TNFAIP8L3 (11732012_x_at) / RFU MBOAT4 (11741988_at) / Fold change /veh MBOAT4 (11741988_at) / RFU 11764193_at / Fold change /veh 11764193_at / RFU TMEM53 (11763286_at) / Fold change /veh TMEM53 (11763286_at) / RFU MAGEB2 (11727129_at) / Fold change /veh MAGEB2 (11727129_at) / RFU TMEM200A (11744735_a_at) / Fold change /veh TMEM200A (11744735_a_at) / RFU CCDC152 (11751479_a_at) / Fold change /veh CCDC152 (11751479_a_at) / RFU FAM211A (11726209_a_at) / Fold change /veh FAM211A (11726209_a_at) / RFU RGS16 (11746705_a_at) / Fold change /veh RGS16 (11746705_a_at) / RFU VCAN (11755009_s_at) / Fold change /veh VCAN (11755009_s_at) / RFU RHOB (11743442_s_at) / Fold change /veh RHOB (11743442_s_at) / RFU RGS16 (11720943_a_at) / Fold change /veh RGS16 (11720943_a_at) / RFU RGS16 (11720944_at) / Fold change /veh RGS16 (11720944_at) / RFU, VPS4B / Fold change vs veh, VPS4B / RFU, CREB1 / Fold change vs veh, CREB1 / RFU, DNAJC13 / Fold change vs veh, DNAJC13 / RFU, GNAQ / Fold change vs veh, GNAQ / RFU, CDK5R1 / Fold change vs veh, CDK5R1 / RFU, ZRANB3 / Fold change vs veh, ZRANB3 / RFU, CUL4A / Fold change vs veh, CUL4A / RFU, CCNY / Fold change vs veh, CCNY / RFU, UFL1 / Fold change vs veh, UFL1 / RFU, COG3 / Fold change vs veh, COG3 / RFU, DIAPH2 / Fold change vs veh, DIAPH2 / RFU, SKA2 / Fold change vs veh, SKA2 / RFU, AFF3 / Fold change vs veh, AFF3 / RFU, LMF1 / Fold change vs veh, LMF1 / RFU, IPO11 / Fold change vs veh, IPO11 / RFU, DFFB / Fold change vs veh, DFFB / RFU, FOXP1 / Fold change vs veh, FOXP1 / RFU, CARD8 / Fold change vs veh, CARD8 / RFU, STRN3 / Fold change vs veh, STRN3 / RFU, ADK / Fold change vs veh, ADK / RFU, RASSF2 / Fold change vs veh, RASSF2 / RFU, WIPF1 / Fold change vs veh, WIPF1 / RFU, LARP1B / Fold change vs veh, LARP1B / RFU, RASA1 / Fold change vs veh, RASA1 / RFU, RB1 / Fold change vs veh, RB1 / RFU, PPFIA1 / Fold change vs veh, PPFIA1 / RFU, MAT2A / Fold change vs veh, MAT2A / RFU, CCT5 / Fold change vs veh, CCT5 / RFU, WDR92 / Fold change vs veh, WDR92 / RFU, CUX1 / Fold change vs veh, CUX1 / RFU, TTC7A / Fold change vs veh, TTC7A / RFU, TMEM135 / Fold change vs veh, TMEM135 / RFU, DEPTOR / Fold change vs veh, DEPTOR / RFU, CPM / Fold change vs veh, CPM / RFU, DNAJB6 / Fold change vs veh, DNAJB6 / RFU, CACNA2D3 / Fold change vs veh, CACNA2D3 / RFU, DTX4 / Fold change vs veh, DTX4 / RFU, TFCP2 / Fold change vs veh, TFCP2 / RFU, GMCL1 /// GMCL1P1 / Fold change vs veh, GMCL1 /// GMCL1P1 / RFU, AEBP2 / Fold change vs veh, AEBP2 / RFU, SNHG1 /// SNORD22 /// SNORD25 /// SNORD26 /// SNORD27 /// SNORD28 /// SNORD29 /// SNORD31 / Fold change vs veh, SNHG1 /// SNORD22 /// SNORD25 /// SNORD26 /// SNORD27 /// SNORD28 /// SNORD29 /// SNORD31 / Fold change (Aza/veh), C12orf56 (ProbeSet 11735607_a_at) / Fold change (ACY-1035/veh), C12orf56 (ProbeSet 11735607_a_at) / Fold change (Aza/veh), FGFR1OP (ProbeSet 11751329_s_at) / Fold change (ACY-1035/veh), FGFR1OP (ProbeSet 11751329_s_at) / Fold change (Aza/veh), VPS36 (ProbeSet 11739960_a_at) / Fold change (ACY-1035/veh), VPS36 (ProbeSet 11739960_a_at) / RFU SYPL1 (11715823_x_at) / Fold change /veh SYPL1 (11715823_x_at) / RFU IGFBP7 (11715501_s_at) / Fold change /veh IGFBP7 (11715501_s_at) / RFU REEP3 (11722064_at) / Fold change /veh REEP3 (11722064_at) / RFU IGLL1 (11728026_x_at) / Fold change /veh IGLL1 (11728026_x_at): dose or concentration left out as unconfirmed
Settings: ProbeSet 11739696_s_at; LIST D

Nc1ncn([C@@H]2O[C@H](CO)[C@@H](O)[C@H]2O)c(=O)n1 [azacitidine]
RFU, AFF3: 345.70 RFU
